Test results from patent US6777425B2, “Isoquinoline compounds having antiinfective activity” (Genesoft Pharmaceuticals, Inc., priority 2001, dated 2004).
≈ marks a conversion by molar mass, not a printed value.

What was measured:
[1] = target: target sequence AATTAATCAT, 352 base pair dsDNA restriction fragment of Plasmid B; experiment: Quantitative DNase I footprint titration, […]; assay type: binding; settings: 352 bp/B, pH 7.0, 22° C., read-out: Dissociation Constant Kd
[2] = test system: S. aureus ATCC 27660; experiment: NCCLS broth microdilution MIC, S. aureus (MRSA); assay type: cell-based, Staphylococcus aureus; settings: organism F = S. aureus ATCC 27660 (MRSA)
Text: (§1) Compounds according to this invention were screened for their in vitro activities against selected species of bacteria and fungi. […]

[3] = test system: E. faecium ATCC 51559; experiment: NCCLS broth microdilution MIC, E. faecium (VRE); assay type: cell-based, Enterococcus faecium; settings: organism D = E. faecium ATCC 51559 (VRE)
Text: as §1

[4] = test system: S. pneumoniae ATCC 51422; experiment: NCCLS broth microdilution MIC, S. pneumoniae (PRSP); assay type: cell-based, Streptococcus pneumoniae; settings: organism I = S. pneumoniae ATCC 51422 (PRSP)
Text: as §1

[5] = test system: E. faecalis ATCC 29212; experiment: NCCLS broth microdilution MIC, E. faecalis; assay type: cell-based; settings: organism C = E. faecalis ATCC 29212; for MIC: Enterococcus faecalis, ATCC29212, read-out: Minimum Inhibitory Concentration (MIC)
Text: as §1

[6] = test system: C. albicans ATCC 38247; experiment: Antifungal MIC, C. albicans; assay type: cell-based, Candida albicans; settings: organism B = C. albicans ATCC 38247; for MIC: Candida albicans, ATCC38247, read-out: Minimum Inhibitory Concentration (MIC)
Text: as §1

[7] = test system: B. cereus ATCC 11778; experiment: NCCLS broth microdilution MIC, B. cereus; assay type: cell-based, Bacillus cereus; settings: organism A = B. cereus ATCC 11778; for MIC: Bacillus cereus, ATCC11778, read-out: Minimum Inhibitory Concentration (MIC)
Text: as §1

[8] = target: target sequence AGTACT, 310 base pair dsDNA restriction fragment of Plasmid A; experiment: Quantitative DNase I footprint titration, AGTACT; assay type: binding; settings: 310 bp/A, pH 7.0, 22° C., read-out: Dissociation Constant Kd
[9] = test system: S. pneumoniae ATCC 49619; experiment: NCCLS broth microdilution MIC, S. pneumoniae ATCC 49619; assay type: cell-based, Streptococcus pneumoniae; settings: organism H = S. pneumoniae ATCC 49619; for MIC: Streptococcus pneumoniae, ATCC49619, read-out: Minimum Inhibitory Concentration (MIC)
Text: as §1

[10] = test system: S. aureus ATCC 13709; experiment: NCCLS broth microdilution MIC, S. aureus (MSSA); assay type: cell-based, Staphylococcus aureus; settings: organism E = S. aureus ATCC 13709 (MSSA); for MIC: Staphylococcus aureus, read-out: Minimum Inhibitory Concentration (MIC)
Text: as §1

[11] = test system: S. epidermidis ATCC 12228; experiment: NCCLS broth microdilution MIC, S. epidermidis; assay type: cell-based, Staphylococcus epidermidis; settings: organism G = S. epidermidis ATCC 12228
Text: as §1

[12] = target: target sequence ACAATTAAT, 352 bp fragment of Plasmid B; experiment: Quantitative DNase I footprint titration, […]; assay type: binding; settings: 352 bp/B, pH 7.0, 22° C., read-out: Dissociation Constant Kd
[13] = test system: methicillin resistant Staphylococcus aureus ATCC 33591; experiment: Murine neutropenic thigh model; assay type: in vivo; settings: thigh at 6 hr, neutropenic CF1 mice
Method: The suspension was diluted 1:100 in phosphate buffered saline (pH 7.2) for a final concentration of 10^6 cfu/mL.
Outbred female CF1 mice (approx. 20 gram body weight) were rendered neutropenic by treatment with cyclophosphamide (200 mg/kg body weight, intraperitoneal injection) at 2 and 4 days prior to inoculation. Groups of 5 mice were inoculated with 0.05 mL of the bacteria (approx. 10^6 cfu/mL) into the anterior thigh. Each group was treated intravenously two hours post infection with vehicle (phosphate buffered saline) or test compound. The mice were sacrificed at either 6 or 24 hrs after treatment and thighs were collected aseptically. Each thigh was weighed, placed into sterile saline, and homogenized. The tissue homogenates were diluted appropriately for plating on agar plates. Colony counts were recorded (cfu/gram) and compared to control groups.

[14] = 50 mg/kg intravenously two hours post infection

Row | Structure (SMILES) | Kd [8] [nM] | Minimum Inhibitory Concentration (MIC) [2] | Minimum Inhibitory Concentration (MIC) [3] | Minimum Inhibitory Concentration (MIC) [4] | Minimum Inhibitory Concentration (MIC) [5] | Minimum Inhibitory Concentration (MIC) [6] | Minimum Inhibitory Concentration (MIC) [7] | Minimum Inhibitory Concentration (MIC) [9] | Minimum Inhibitory Concentration (MIC) [10] | Minimum Inhibitory Concentration (MIC) [11] | Colony Count (log cfu/gram), Compound [13, 14] [log cfu/gram] | also measured
1 | Cn1cc(NC(=O)c2cc3ccccc3cn2)cc1C(=O)Nc1cc(C(=O)Nc2cc(C(=O)NCCN3CCOCC3)n(CCN3CCOCC3)c2)n(C)c1 [Ib-56] | < 100 | – | – | – | – | – | – | – | – | – | – | Kd [1]: 5 nM; MIC ([2]; Staphylococcus aureus, read-out: Minimum Inhibitory Concentration (MIC)): < 4 µg/mL; MIC ([3]; Enterococcus faecium, read-out: Minimum Inhibitory Concentration (MIC)): 4 to 12 µg/mL (≈ 5.33 to 16 µM); MIC ([4]; Streptococcus pneumoniae, read-out: Minimum Inhibitory Concentration (MIC)): < 4 µg/mL; MIC [5]: < 4 µg/mL; MIC [6]: > 32 µg/mL; MIC [7]: < 4 µg/mL; MIC [9]: < 4 µg/mL; MIC [10]: < 4 µg/mL; MIC ([11]; Staphylococcus epidermidis, ATCC12228, read-out: Minimum Inhibitory Concentration (MIC)): < 4 µg/mL
2 | Cn1cc(NC(=O)c2cc3ccccc3cn2)cc1C(=O)Nc1cc(C(=O)Nc2cc(C(=O)NCCN3CCCCC3)ns2)n(C)c1 [Ib-59] | 50 | +++ (+++ = MIC ≦ 4) | +++ (+++ = MIC ≦ 4) | +++ (+++ = MIC ≦ 4) | +++ (+++ = MIC ≦ 4) | >32 µg/mL | +++ (+++ = MIC ≦ 4) | +++ (+++ = MIC ≦ 4) | +++ (+++ = MIC ≦ 4) | +++ (+++ = MIC ≦ 4) | – | Kd [12]: 1 nM
3 | Cn1cc(NC(=O)c2cc(NC(=O)c3cc(NC(=O)c4cc5ccccc5cn4)no3)cn2C)cc1C(=O)NCCN1CCOCC1 [Ib-60] | 10 | – | – | – | – | – | – | – | – | – | – | Kd [1]: 5 nM; MIC [5]: < 4 µg/mL; MIC [6]: > 32 µg/mL; MIC [7]: < 4 µg/mL; MIC [9]: < 4 µg/mL; MIC [10]: < 4 µg/mL
4 | Cc1cc(NC(=O)c2cc(NC(=O)c3cc(NC(=O)c4cc5ccccc5cn4)cn3C)cn2CCCN(C)C)sn1 [Ib-66] | – | +++ (+++ = MIC ≦ 4) | ++ (++ = 4 < MIC < 12) | +++ (+++ = MIC ≦ 4) | +++ (+++ = MIC ≦ 4) | +++ (+++ = MIC ≦ 4) | +++ (+++ = MIC ≦ 4) | +++ (+++ = MIC ≦ 4) | +++ (+++ = MIC ≦ 4) | +++ (+++ = MIC ≦ 4) | 6.66 | –
5 | Cn1cc(NC(=O)c2cc3ccccc3cn2)cc1C(=O)Nc1cc(C(=O)Nc2cc(C(=O)NCCN3CCCCC3)n(CCN3CCCCC3)c2)n(C)c1 [Ib-68] | – | +++ (+++ = MIC ≦ 4) | – | – | +++ (+++ = MIC ≦ 4) | + (+ = 12 ≦ MIC ≦ 32) | +++ (+++ = MIC ≦ 4) | +++ (+++ = MIC ≦ 4) | +++ (+++ = MIC ≦ 4) | – | 6.36 | –
6 | Cn1cc(NC(=O)c2ccc(NC(=O)c3cc(NC(=O)c4cc5ccccc5cn4)cn3C)cc2)cc1C(=O)NCCc1ccccn1 [Ic-12] | – | +++ (+++ = MIC ≦ 4) | +++ (+++ = MIC ≦ 4) | +++ (+++ = MIC ≦ 4) | +++ (+++ = MIC ≦ 4) | >32 µg/mL | >32 µg/mL | +++ (+++ = MIC ≦ 4) | +++ (+++ = MIC ≦ 4) | +++ (+++ = MIC ≦ 4) | – | –

Second part, led by results:

Row | Kd [8] [nM] | Minimum Inhibitory Concentration (MIC) [2] | Minimum Inhibitory Concentration (MIC) [3] | Minimum Inhibitory Concentration (MIC) [4] | Minimum Inhibitory Concentration (MIC) [5] | Minimum Inhibitory Concentration (MIC) [6] | Minimum Inhibitory Concentration (MIC) [7] | Minimum Inhibitory Concentration (MIC) [9] | Minimum Inhibitory Concentration (MIC) [10] | Minimum Inhibitory Concentration (MIC) [11] | Structure (SMILES) | Colony Count (log cfu/gram), Compound [13, 14] [log cfu/gram] | also measured
7 | – | +++ (+++ = MIC ≦ 4) | – | – | +++ (+++ = MIC ≦ 4) | >32 µg/mL | +++ (+++ = MIC ≦ 4) | +++ (+++ = MIC ≦ 4) | +++ (+++ = MIC ≦ 4) | – | Cn1cc(NC(=O)c2cc(NC(=O)c3cc(NC(=O)c4cc5ccccc5cn4)cn3C)c[nH]2)cc1C(=O)NCCN1CCOCC1 [Ib-67] | 5.79 | Colony Count (log cfu/gram), Compound ([13]; 25 mg/kg intravenously two hours post infection): 6.61 log cfu/gram
8 | – | +++ (+++ = MIC ≦ 4) | +++ (+++ = MIC ≦ 4) | +++ (+++ = MIC ≦ 4) | +++ (+++ = MIC ≦ 4) | >32 µg/mL | +++ (+++ = MIC ≦ 4) | +++ (+++ = MIC ≦ 4) | +++ (+++ = MIC ≦ 4) | +++ (+++ = MIC ≦ 4) | Cn1cc(NC(=O)c2ccc(NC(=O)c3cc(NC(=O)c4cc5ccccc5cn4)cn3C)cc2)cc1C(=O)NCCN1CCSCC1 [Ic-7] | – | –
9 | – | +++ (+++ = MIC ≦ 4) | +++ (+++ = MIC ≦ 4) | +++ (+++ = MIC ≦ 4) | +++ (+++ = MIC ≦ 4) | >32 µg/mL | +++ (+++ = MIC ≦ 4) | +++ (+++ = MIC ≦ 4) | +++ (+++ = MIC ≦ 4) | +++ (+++ = MIC ≦ 4) | Cn1cc(NC(=O)c2ccc(NC(=O)c3cc(NC(=O)c4cc5ccccc5cn4)cn3C)cc2)cc1C(=O)NCCN1CCCCC1 [Ic-13] | – | –
